Experimental data taken from publication PMC12195967, “Cobalt(II) Complexes of 4′–Nitro–Fenamic Acid: Characterization and Biological Evaluation” (Molecules, 2025).
Values joined by “and” are separate entries in the source; they are usually repeats but may differ in a detail not shown here. Equal entries are not always repeated.

How the values were obtained:
[1] = Reduction of hydrogen peroxide; conditions: compounds 0.1 mM; phosphate buffer pH 7.4; 10 min
Procedure: Harmful hydroxyl radicals are released when hydrogen peroxide interacts with transition metal ions, leading to oxidative stress. Consequently, both oxidative stress and the production of reactive oxygen species could be reduced by ^•OH scavengers and H2O2 reducing agents.
S1 Antioxidant activity assay
The antioxidant activity of the compound was evaluated via the ability to scavenge in vitro free radicals such as DPPH and ABTS and to reduce H2O2. […]
S1.3 Reduction of hydrogen peroxide
The ability of the compounds to reduce hydrogen peroxide (H2O2) was estimated according to the method described in the literature. The reaction mixture contained 20 μL of each of the tested compounds (0.1 mM) and 5 μL H2O2 solution (40 mM) in phosphate […]
buffer (50 mM, pH 7.4). The absorbance was measured at 230 nm after 10 min. The antioxidant activity (reduction of H2O2) of the compounds was expressed as the percentage decrease of the initial H2O2 solution (H2O2%). […]

CT DNA = assay: DNA-melting temperature of CT DNA in presence of the compounds; assay type: binding, calf; conditions: compound–DNA ratio 1:50; for Tm of CT DNA in the presence of the compound: CT DNA alone Tm 80.7 °C; for ΔTm of CT DNA: versus CT DNA alone 80.7 °C
Text: In order to further clarify the interaction mode of the compounds with CT DNA, the effect of the temperature of this interaction was also investigated. Within this context, the thermal denaturation of DNA in the presence of the compounds was studied with UV-vis spectroscopy in order to calculate (via a sigmoidal fitting of the experimental data) the DNA-melting temperature (Tm), i.e., the temperature at which half of double-stranded DNA is denatured (“melted”) to single-stranded DNA.
S3 Binding studies with CT DNA
In order to study the interaction of the compounds with DNA, the compound was initially dissolved in DMSO (1 mM). Mixing of such solutions with the aqueous buffer solutions of DNA used in the studies never exceeded 5% DMSO (v/v) in the final solution, which was needed due to low aqueous solubility of most compounds. In all experiments, the effect of DMSO on the data has been taken into consideration and the appropriate corrections have been performed. The interaction of the compound with CT DNA was monitored by UV−vis spectroscopy, and viscosity measurements, and via competitive studies with EB by fluorescence emission spectroscopy. […]
S3.2 Determination of the DNA–melting temperature (Tm)
The UV–vis spectra of a CT DNA solution (1.25×10–4 M) in the presence of the compounds (2.5×10–6 M) were recorded upon increasing the temperature. The obtained data are presented as normalized absorbance at 260 nm (Normalized A(260 nm)) versus temperature (T (ºC)). A sigmoidal fitting of the data was applied for each compound and the melting temperature Tm (temperature with normalized absorbance of 0.5) was determined. […]

[2] = target: T1, human serum albumin (HSA) (Homo sapiens, UniProt P02768); assay: Competitive albumin-fluorescence studies with warfarin and ibuprofen; assay type: binding; conditions: for K(HSA, ibuprofen): in the presence of ibuprofen; for K(HSA, warfarin): in the presence of warfarin
T1 construct: purchased Sigma-Aldrich Co
Text: (§1) One of the primary functions of SAs is the transport of various compounds such as drugs, fatty acids and hormones. Albumins are composed of three domains, I, II and III, and each of them is subdivided into A and B subdomains that host compounds [90]. […] Site markers like warfarin and ibuprofen are used to identify in which albumin site a compound is bound, as these markers bind selectively to Sudlow’s sites I and II, respectively. The SA-binding site of the compounds was investigated by calculating the SA-binding constant for both HSA and BSA in the presence of ibuprofen or warfarin and comparing them with the values previously derived (in the absence of any marker).
(§2) Incremental addition of the compounds into a solution containing the SA (HSA or BSA) and the respective site marker (warfarin or ibuprofen) induced quenching of the initial fluorescence emission band (Figures S19–S22). The SA-binding constants for each compound in the presence of warfarin or ibuprofen were calculated with the Scatchard equation (Equation (S7)) and the corresponding plots (Figures S23–S26) and are compared with those calculated in the absence of any site marker to determine the preferable drug site. […]
(§3) From the Scatchard equation:
(§4) [Q] = nK − K Io (equation S7) where n is the number of binding sites per albumin and K is the albumin−binding constant (K, in M−1) is calculated from the slope in plots (ΔI/Io)/[compound] versus (ΔI/Io) and n is given by the ratio of y intercept to the slope.
(§5) S5.2 Competitive albumin−fluorescence studies with warfarin and ibuprofen The competitive studies with warfarin or ibuprofen (as site−markers) were performed by tryptophan fluorescence quenching experiments using a fixed concentration of the albumin and site markers (3 μM) in buffer (containing 15 mM trisodium citrate and 150 mM NaCl at pH 7.0). The fluorescence emission spectra were recorded in the presence of increasing amounts of the compounds as quenchers with an excitation wavelength of 295 nm. The Scatchard equation (equation S7) and plots were applied on the corrected albumin−fluorescence emission spectra to determine the albumin−binding constant of the compounds in the presence of warfarin or ibuprofen.

[3] = target: T2, bovine serum albumin (BSA) (Bos taurus, UniProt P02769); assay: as above; assay type: binding; conditions: for preferential BSA-binding site: from comparison of K with and without site markers; for K(BSA, ibuprofen): in the presence of ibuprofen; for K(BSA, warfarin): in the presence of warfarin
T2 construct: purchased Sigma-Aldrich Co
Text: as §1, §2, §3, §4, §5

T2 sequence (P02769 25-607): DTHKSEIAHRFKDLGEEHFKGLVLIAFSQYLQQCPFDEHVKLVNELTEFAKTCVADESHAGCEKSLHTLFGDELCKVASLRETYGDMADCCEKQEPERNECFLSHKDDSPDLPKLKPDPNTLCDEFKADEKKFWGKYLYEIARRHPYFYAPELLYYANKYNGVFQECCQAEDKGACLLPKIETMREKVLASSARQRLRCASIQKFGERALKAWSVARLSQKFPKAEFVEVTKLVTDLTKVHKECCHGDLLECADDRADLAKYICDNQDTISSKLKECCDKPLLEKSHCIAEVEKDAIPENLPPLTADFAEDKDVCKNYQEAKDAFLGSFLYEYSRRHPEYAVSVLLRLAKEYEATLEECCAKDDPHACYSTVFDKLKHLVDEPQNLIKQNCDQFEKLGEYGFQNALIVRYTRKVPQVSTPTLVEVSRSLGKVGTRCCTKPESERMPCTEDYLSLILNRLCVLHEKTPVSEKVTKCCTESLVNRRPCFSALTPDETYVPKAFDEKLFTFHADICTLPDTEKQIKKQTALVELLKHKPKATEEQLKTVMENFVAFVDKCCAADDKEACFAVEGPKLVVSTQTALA
T1 sequence (P02768 25-609): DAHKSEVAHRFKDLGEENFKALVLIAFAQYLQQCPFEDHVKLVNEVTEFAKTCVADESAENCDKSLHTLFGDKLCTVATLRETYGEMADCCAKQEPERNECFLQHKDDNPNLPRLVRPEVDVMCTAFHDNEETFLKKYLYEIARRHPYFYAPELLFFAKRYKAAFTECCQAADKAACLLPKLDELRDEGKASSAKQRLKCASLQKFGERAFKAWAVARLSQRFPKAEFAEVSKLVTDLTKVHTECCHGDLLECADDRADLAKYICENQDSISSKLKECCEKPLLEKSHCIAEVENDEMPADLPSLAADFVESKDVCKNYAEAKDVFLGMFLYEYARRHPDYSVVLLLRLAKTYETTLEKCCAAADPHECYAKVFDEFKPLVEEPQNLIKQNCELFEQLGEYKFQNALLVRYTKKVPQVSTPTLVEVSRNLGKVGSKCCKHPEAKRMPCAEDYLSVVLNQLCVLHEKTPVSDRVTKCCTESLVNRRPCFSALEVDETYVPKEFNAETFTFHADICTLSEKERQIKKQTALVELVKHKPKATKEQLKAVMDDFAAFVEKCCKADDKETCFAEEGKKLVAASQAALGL

SMILES	H2O2-reducing ability (H2O2%) [1]	Tm of CT DNA in the presence of the compound (CT DNA)	ΔTm of CT DNA (CT DNA)	K(HSA, ibuprofen) [2]	K(HSA, warfarin) [2]	preferential BSA-binding site [3]	K(BSA, ibuprofen) [3]	K(BSA, warfarin) [3]
C[O-].C[O-].Cc1ccc2ccc3ccc(C)nc3c2n1.Cc1ccc2ccc3ccc(C)nc3c2n1.O=C([O-])c1ccccc1Nc1ccc([N+](=O)[O-])cc1.O=C([O-])c1ccccc1Nc1ccc([N+](=O)[O-])cc1.[Co+2].[Co+2] [Complex 4, [Co2(4′–NO2–fen)2(μ–CH3O)2(neoc)2]]	72.44 ± 0.42%	73.9 °C	negative	3.04 (±0.15) × 10^5 M^−1	5.00 (±0.18) × 10^5 M^−1	Sudlow’s site I	3.60 (±0.14) × 10^5 M^−1	2.40 (±0.06) × 10^5 M^−1
O=C(O)c1ccccc1Nc1ccc([N+](=O)[O-])cc1 [4′–NO2–fenH, 4′–nitrofenamic acid]	66.46% and 66.46 ± 0.33%	83.7 °C	–	2.91 (±0.06) × 10^5 M^−1	3.22 (±0.12) × 10^5 M^−1	Sudlow’s site I	2.70 (±0.11) × 10^5 M^−1	1.41 (±0.06) × 10^5 M^−1
O=C([O-])c1ccccc1Nc1ccc([N+](=O)[O-])cc1.O=C([O-])c1ccccc1Nc1ccc([N+](=O)[O-])cc1.[Co+2].c1cnc2c(c1)ccc1cccnc12 [Complex 3, [Co(4′–NO2–fen)2(phen)]]	69.48 ± 0.37%	84.7 °C	–	5.23 (±0.17) × 10^4 M^−1	4.80 (±0.17) × 10^5 M^−1	Sudlow’s site I	1.95 (±0.03) × 10^5 M^−1	1.60 (±0.06) × 10^5 M^−1
CO.CO.CO.CO.O=C([O-])c1ccccc1Nc1ccc([N+](=O)[O-])cc1.O=C([O-])c1ccccc1Nc1ccc([N+](=O)[O-])cc1.[Co+2] [Complex 1, [Co(4′–NO2–fen)2(MeOH)4]]	72.68 ± 0.63%	83.7 °C	–	1.66 (±0.09) × 10^5 M^−1	1.99 (±0.11) × 10^5 M^−1	Sudlow’s site I	1.38 (±0.08) × 10^5 M^−1	1.06 (±0.04) × 10^5 M^−1
O=C([O-])c1ccccc1Nc1ccc([N+](=O)[O-])cc1.O=C([O-])c1ccccc1Nc1ccc([N+](=O)[O-])cc1.[Co+2].c1ccc(Nc2ccccn2)nc1 [Complex 2, [Co(4′–NO2–fen)2(bipyam)]]	77.59 ± 0.28%	74.5 °C	negative	2.02 (±0.03) × 10^5 M^−1	2.75 (±0.19) × 10^5 M^−1	Sudlow’s site II	1.42 (±0.09) × 10^5 M^−1	1.85 (±0.06) × 10^5 M^−1
